Earlier results, collected in patent publication US6737441B2, “Treatment of helicobacter with isothiocyanates” (priority 2000, dated 2004).

Details: in cell culture; cited from earlier work

Compound | activity as inducers relative to sulforaphane and sulforaphene
C[S+]([O-])CCCCCN=C=S (centres unmarked) [alyssin] | less active
CS(=O)(=O)CCCCN=C=S [erysolin] | less active
CSCCCN=C=S [iberverin] | less active
C[S+]([O-])CCCN=C=S (centres unmarked) [iberin] | less active
CS(=O)(=O)CCCN=C=S [cheirolin] | less active
